Results as given in patent publication US12637471B2, “Heterocyclic compounds, compositions, methods of preparation and uses thereof” (Organon R&D Finland Ltd, priority 2021, dated 2026).

Tests used:
[1] = phase II clinical trial, endometriosis; trial was terminated; cited from earlier work
[2] = target: T1, Recombinant human AKR1C3 (17β-HSD5) protein (Homo sapiens, UniProt P42330); test: Inhibition of AKR1C3 (17β-hydroxysteroid dehydrogenase type 5) enzyme, fluorescence assay; type: biochemical; conditions: inhibitor at 500 nM
T1 construct: made in house; host or cells: E. coli
T1 sequence (P42330 1-323): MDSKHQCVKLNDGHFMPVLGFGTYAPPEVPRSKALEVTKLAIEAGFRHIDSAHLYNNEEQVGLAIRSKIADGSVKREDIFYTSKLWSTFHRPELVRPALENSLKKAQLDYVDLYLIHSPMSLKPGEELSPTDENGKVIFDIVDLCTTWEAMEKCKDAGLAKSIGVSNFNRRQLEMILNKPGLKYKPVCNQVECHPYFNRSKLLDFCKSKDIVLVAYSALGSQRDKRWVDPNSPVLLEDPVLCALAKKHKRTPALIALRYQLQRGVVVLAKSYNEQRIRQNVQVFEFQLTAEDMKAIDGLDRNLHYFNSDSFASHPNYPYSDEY
Method in brief: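 Percent inhibition at 500 nM compound, derived from substrate conversion; product alcohol measured by fluorescence (ex 420, em 510 nm) against a 1 μM–10 nM standard curve. Reaction: 27 nM recombinant AKR1C3, 1 μM ketone substrate, 1 mM NADPH, phosphate/EDTA buffer pH 7.4, 1% DMSO, RT for 60–120 min.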

[3] = target: T2, Recombinant human aldo-keto reductase family 1 member C2 (AKR1C2) protein (Homo sapiens, UniProt P52895); test: Inhibition of the aldo-keto reductase family 1 member C2, 3H-dihydrotestosterone conversion; type: biochemical; conditions: inhibitor at 10 μM
T2 construct: made in house; host or cells: Sf-9 insect cells (baculovirus)
T2 sequence (P52895 1-323): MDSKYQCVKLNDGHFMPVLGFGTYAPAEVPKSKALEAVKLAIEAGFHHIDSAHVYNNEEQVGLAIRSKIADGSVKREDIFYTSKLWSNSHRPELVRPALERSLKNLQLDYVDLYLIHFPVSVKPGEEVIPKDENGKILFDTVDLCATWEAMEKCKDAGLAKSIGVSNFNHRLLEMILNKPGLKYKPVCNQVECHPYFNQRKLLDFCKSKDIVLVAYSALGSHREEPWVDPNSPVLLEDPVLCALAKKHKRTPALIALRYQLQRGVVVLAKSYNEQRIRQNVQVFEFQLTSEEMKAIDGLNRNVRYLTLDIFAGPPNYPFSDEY
Method in brief: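 Single-point screen at 10 μM inhibitor, 1% DMSO: [3H]DHT (6.25 nM) reduction to 3α-diol by baculovirus-made AKR1C2 (13.6 nM), pH 7.4 phosphate buffer, 1 mM NADPH, 37 °C for 45 min. Radio-UPLC quantified product versus substrate to give percent inhibition.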

[4] = target: T3, 17β-Hydroxysteroid Dehydrogenase Type 2 Enzyme (17β-HSD2) (Homo sapiens, UniProt P37059); test: Inhibition of the 17β-hydroxysteroid dehydrogenase type 2 enzyme, 3H-testosterone conversion; type: biochemical; conditions: inhibitor at 10 μM
T3 construct: made in house; host or cells: Sf-9 insect cells (baculovirus)
T3 sequence (P37059 1-387): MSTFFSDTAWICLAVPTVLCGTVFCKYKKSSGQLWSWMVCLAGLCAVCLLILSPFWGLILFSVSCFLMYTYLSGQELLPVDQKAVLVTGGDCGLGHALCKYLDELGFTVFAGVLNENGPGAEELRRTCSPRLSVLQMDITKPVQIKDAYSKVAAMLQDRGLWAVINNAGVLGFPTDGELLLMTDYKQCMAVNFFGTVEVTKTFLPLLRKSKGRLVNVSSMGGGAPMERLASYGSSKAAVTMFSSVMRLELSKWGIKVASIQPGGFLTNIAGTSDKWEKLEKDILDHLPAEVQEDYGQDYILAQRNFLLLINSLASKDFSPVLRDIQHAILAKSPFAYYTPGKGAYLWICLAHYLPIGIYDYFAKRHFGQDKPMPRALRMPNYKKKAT
Method in brief: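 Single-point screen at 10 μM inhibitor, 1% DMSO: Sf-9-expressed human enzyme (105 nM), NAD 1 mM, ³H-labelled testosterone 56.25 nM, pH 8.5 phosphate/EDTA buffer, 30 min, room temperature. After TCA quench, substrate and product radioactivity quantified by UPLC with scintillation detection; inhibition percent from conversion.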

Structure (SMILES)	bilirubin levels of patients [1]	inhibition at 0.5 µM [2] [%]	inhibition at 10 µM [3] [%]	inhibition at 10 µM [4] [%]
CN(CCC(=O)O)C(=O)c1ccc2c(c1)CC[C@@H]1[C@@H]2CC[C@]2(C)C(c3cncc(F)c3)=CC[C@@H]12 [BAY-1128688]	raised bilirubin levels			
N#CC(=C1CCN(C(=O)N2CCc3nocc3C2)CC1)c1cc(F)cc(F)c1 [Compound 158, 2-(3,5-difluorophenyl)-2-(1-(4,5,6,7-tetrahydroisoxazolo[4,3-c]pyridine-5-carbonyl)piperidin-4-ylidene)acetonitrile]		101	22	-4
N#CC(=C1CCN(C(=O)N2CCc3nocc3C2)CC1)c1ccc(OC(F)(F)F)cc1 [Compound 159, 2-(1-(4,5,6,7-tetrahydroisoxazolo[4,3-c]pyridine-5-carbonyl)piperidin-4-ylidene)-2-(4-(trifluoromethoxy)phenyl)acetonitrile]		100	14	1
N#CC(=C1CCN(C(=O)N2CCc3nocc3C2)CC1)c1ccc(Cl)s1 [Compound 160, 2-(5-chlorothiophen-2-yl)-2-(1-(4,5,6,7-tetrahydroisoxazolo[4,3-c]pyridine-5-carbonyl)piperidin-4-ylidene)acetonitrile]		99	34	18
N#CC(=C1CCN(C(=O)N2CCc3nocc3C2)CC1)c1ccc(Cl)cn1 [Compound 161, 2-(5-chloropyridin-2-yl)-2-(1-(4,5,6,7-tetrahydroisoxazolo[4,3-c]pyridine-5-carbonyl)piperidin-4-ylidene)acetonitrile]		98	19	7
N#CC(=C1CCN(C(=O)N2CCn3nncc3C2)CC1)c1ccc(OC(F)(F)F)cc1 [Compound 162, 2-(1-(4,5,6,7-tetrahydro-[1,2,3]triazolo[1,5-a]pyrazine-5-carbonyl)piperidin-4-ylidene)-2-(4-(trifluoromethoxy)phenyl)acetonitrile]		98	17	1
N#CC(=C1CCN(C(=O)N2CCn3nncc3C2)CC1)c1ccc(Cl)cn1 [Compound 163, 2-(5-chloropyridin-2-yl)-2-(1-(4,5,6,7-tetrahydro-[1,2,3]triazolo[1,5-a]pyrazine-5-carbonyl)piperidin-4-ylidene)acetonitrile]		97	2	9
N#CC(=C1CCN(C(=O)N2CCn3ncnc3C2)CC1)c1ccc(Cl)cc1 [Compound 164, 2-(4-chlorophenyl)-2-(1-(5,6,7,8-tetrahydro-[1,2,4]triazolo[1,5-a]pyrazine-7-carbonyl)piperidin-4-ylidene)acetonitrile]		99	12	10
N#CC(=C1CCN(C(=O)N2CCn3ncnc3C2)CC1)c1ccc(Cl)cn1 [Compound 165, 2-(5-chloropyridin-2-yl)-2-(1-(5,6,7,8-tetrahydro-[1,2,4]triazolo[1,5-a]pyrazine-7-carbonyl)piperidin-4-ylidene)acetonitrile]		95	9	6
N#CC(=C1CCN(C(=O)N2CCn3ncnc3C2)CC1)c1cc(F)cc(F)c1 [Compound 166, 2-(3,5-difluorophenyl)-2-(1-(5,6,7,8-tetrahydro-[1,2,4]triazolo[1,5-a]pyrazine-7-carbonyl)piperidin-4-ylidene)acetonitrile]		96	13	2
N#CC(=C1CCN(C(=O)N2CCn3ncnc3C2)CC1)c1ccc(OC(F)(F)F)cc1 [Compound 167, 2-(1-(5,6,7,8-tetrahydro-[1,2,4]triazolo[1,5-a]pyrazine-7-carbonyl)piperidin-4-ylidene)-2-(4-(trifluoromethoxy)phenyl)acetonitrile]		97	7	-1
N#CC(=C1CCN(C(=O)N2CCn3ncnc3C2)CC1)c1ccc(Cl)s1 [Compound 168, 2-(5-chlorothiophen-2-yl)-2-(1-(5,6,7,8-tetrahydro-[1,2,4]triazolo[1,5-a]pyrazine-7-carbonyl)piperidin-4-ylidene)acetonitrile]		98	24	-2
CN(C(=O)N1CCC(=C(C#N)c2ccc(Cl)cc2)CC1)C1COC1 [Compound 169, 4-((4-chlorophenyl)(cyano)methylene)-N-methyl-N-(oxetan-3-yl)piperidine-1-carboxamide]		95	7	-2
CCN(CC)C(=O)N1CCC(=C(C#N)c2ccc(OC(F)(F)F)cc2)CC1 [Compound 170, 4-(cyano(4-(trifluoromethoxy)phenyl)methylene)-N,N-diethylpiperidine-1-carboxamide]		98	4	28
CCN(CC)C(=O)N1CCC(=C(C#N)c2ccc(C(F)(F)F)cc2)CC1 [Compound 171, 4-(cyano(4-(trifluoromethyl)phenyl)methylene)-N,N-diethylpiperidine-1-carboxamide]		99	3	17
CCN(CC)C(=O)N1CCC(=C(C#N)c2ccc(F)cn2)CC1 [Compound 172, 4-(cyano(5-fluoropyridin-2-yl)methylene)-N,N-diethylpiperidine-1-carboxamide]		95	-2	13
CCN(CC)C(=O)N1CCC(=C(C#N)c2ccc(Cl)s2)CC1 [Compound 173, 4-((5-chlorothiophen-2-yl)(cyano)methylene)-N,N-diethylpiperidine-1-carboxamide]		99	29	50
